Values of other authors as cited in US20150045288A1, “COMPOSITION” (priority 2012, published 2015).
Read-outs that look alike come from different tables or passages of the source.

Details: 50% ethanol solution

## difficidin
pH 3.5, room temperature
  t90 (time at which 90% of the inhibitory substance remains as tested by HPLC): 2 h
pH 11, room temperature
  t90 (time at which 90% of the inhibitory substance remains as tested by HPLC): 17 h
